In patent US10570179B2, “Substituted urea depsipeptide analogs as activators of the CLPP endopeptidase” (priority 2016, dated 2020):
Converted amounts (≈) assume the structure as drawn. Where two headings read alike, the source gives them in different places. Numbered stars: 1 amine (or outer) side, 2 acyl side, 3 side chain; on linkers, the order of the positions; unused ones are H or OH. Bridge positions count the residues as written; N and C are the ends. Square brackets hold non-standard residues; d marks the D form. Peptide text beside a SMILES is read from it. * marks the point of attachment. Piperazine(2S-CO,4-Me) = CN1CCN[C@H](C(=O)O)C1; Phe(3,5-F2) = N[C@@H](Cc1cc(F)cc(F)c1)C(=O)O; Phe(3-Me) = Cc1cccc(C[C@H](N)C(=O)O)c1; NH(4-Cl-2-F-phenyl) = Fc1cc(Cl)ccc1N*; Pro(4R-Me) = C[C@H]1CN[C@H](C(=O)O)C1; Propanoyl(3-NMe2) = CN(C)CCC(=O)*; X1 = O=C([C@@H]1CSCCN1[*:1])[*:2]; Hyp = O=C(O)[C@@H]1C[C@@H](O)CN1; aThr = C[C@H](O)[C@H](N)C(=O)O; Pip = O=C(O)[C@@H]1CCCCN1; 4Abz = Nc1ccc(C(=O)O)cc1; CO = O=C([*:1])[*:2]; X2 = Fc1cc(N*)ccc1Cl

Test system: S. aureus ATCC 29213
Experiment: Minimal inhibitory concentration, microbroth dilution
Format: cell-based
Details: Staphylococcus aureus
Outline: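 Susceptibility testing used the CLSI dilution standard, with bacteria at ~10^5 cfu/mL exposed to a two-fold compound series beginning at 200 μM final. The endpoint is the lowest concentration showing no growth after overnight incubation (37 °C, aerobic).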

[1] = ATCC29213, MIC, read-out: Minimal Inhibitory Concentrations (μM) S. aureus ATCC 29213

SMILES	MIC (ATCC29213, read-out: Minimal Inhibitory Concentrations (μM) S. aureus ATCC 29213, MIC) [µM]	MIC [1] [µM]
CCOC(=O)c1ccc(NC(=O)N[C@@H](Cc2cccc(C)c2)C(=O)N[C@@H]2C(=O)N3C[C@H](O)C[C@H]3C(=O)N3CCCC[C@H]3C(=O)N[C@@H](C)C(=O)N3C[C@H](C)C[C@H]3C(=O)O[C@H]2C)cc1 [Compound 36, ETHYL 4-(3-((S)-1-(((2R,6S,8AS,14AS,16R,20S,21S,23AS)-16-HYDROXY-2,6,21-TRIMETHYL-5,8,14,19,23-PENTAOXOOCTADECAHYDRO-1H,5H,14H,19H-PYRIDO[2,1-I]DIPYRROLO[2,1-C:2′,1′-L][1]OXA[4,7,10,13]TETRAAZACYCLOHEXADECIN-20-YL)AMINO)-1-OXO-3-(M-TOLYL)PROPAN-2-YL)UREIDO)BENZOATE] ({OEt-4Abz-CO}-[Phe(3-Me)][aThr][Hyp][Pip]A[Pro(4R-Me)]; ester 2-C)	1.25 (≈ 1.07 µg/mL)	–
Cc1cccc(C[C@H](NC(=O)Nc2ccc(Cl)cc2F)C(=O)N[C@@H]2C(=O)N3CCC[C@H]3C(=O)N3CCSC[C@H]3C(=O)N[C@@H](C)C(=O)N3C[C@H](C)C[C@H]3C(=O)O[C@H]2C)c1 [Compound 38, (S)-2-(3-(4-CHLORO-2-FLUOROPHENYL)UREIDO)-3-(M-TOLYL)-N-((6AS,12S,13S,15AS,17R,21S,23AR)-13,17,21-TRIMETHYL-6,11,15,20,23-PENTAOXOOCTADECAHYDRO-6H,11H,15H-DIPYRROLO[2,1-C:2′,1′-L][1,4]THIAZINO[3,4-I][1]OXA[4,7,10,13]TETRAAZACYCLOHEXADECIN-12-YL)PROPANAMIDE] ({NH(4-Cl-2-F-phenyl)-CO}-[Phe(3-Me)][aThr]P[X1]A[Pro(4R-Me)]; ester 2-C)	–	0.039 (≈ 0.0329 µg/mL)
Cc1cccc(C[C@H](NC(=O)Nc2ccc(Cl)c(F)c2)C(=O)N[C@@H]2C(=O)N3CCC[C@H]3C(=O)N3CCCC[C@H]3C(=O)N[C@@H](C)C(=O)N3C[C@H](C)C[C@H]3C(=O)O[C@H]2C)c1 [Compound 35, (S)-2-(3-(4-CHLORO-3-FLUOROPHENYL)UREIDO)-3-(M-TOLYL)-N-((2R,6S,8AS,14AS,20S,21S,23AS)-2,6,21-TRIMETHYL-5,8,14,19,23-PENTAOXOOCTADECAHYDRO-1H,5H,14H,19H-PYRIDO[2,1-I]DIPYRROLO[2,1-C:2′,1′-L][1]OXA[4,7,10,13]TETRAAZACYCLOHEXADECIN-20-YL)PROPANAMIDE] ({X2-CO}-[Phe(3-Me)][aThr]P[Pip]A[Pro(4R-Me)]; ester 2-C)	–	0.625 (≈ 0.515 µg/mL)
Cc1cccc(C[C@H](NC(=O)Nc2ccc(Cl)cc2F)C(=O)N[C@@H]2C(=O)N3C[C@H](OC(=O)CCN(C)C)C[C@H]3C(=O)N3CCCC[C@H]3C(=O)N[C@@H](C)C(=O)N3C[C@H](C)C[C@H]3C(=O)O[C@H]2C)c1 [Compound 46, (2R,6S,8AS,14AS,16R,20S,21S,23AS)-20-((S)-2-(3-(4-CHLORO-2-FLUOROPHENYL)UREIDO)-3-(M-TOLYL)PROPANAMIDO)-2,6,21-TRIMETHYL-5,8,14,19,23-PENTAOXOOCTADECAHYDRO-1H,5H,14H,19H-PYRIDO[2,1-I]DIPYRROLO[2,1-C:2′,1′-L][1]OXA[4,7,10,13]TETRAAZACYCLOHEXADECIN-16-YL 3-(DIMETHYLAMINO)PROPANOATE] ({NH(4-Cl-2-F-phenyl)-CO}-[Phe(3-Me)][aThr][Hyp](Propanoyl(3-NMe2))[Pip]A[Pro(4R-Me)]; ester 2-C)	–	0.313 (≈ 0.294 µg/mL)
C[C@@H]1C[C@H]2C(=O)OC[C@H](NC(=O)[C@H](Cc3cc(F)cc(F)c3)NC(=O)Nc3ccc(Cl)cc3F)C(=O)N3CCC[C@H]3C(=O)N3CCN(C)C[C@H]3C(=O)N[C@@H](C)C(=O)N2C1 [Compound 34] ({NH(4-Cl-2-F-phenyl)-CO}-[Phe(3,5-F2)]SP[Piperazine(2S-CO,4-Me)]A[Pro(4R-Me)]; ester 2-C)	–	0.078 (≈ 0.0661 µg/mL)
